ChEMBL document CHEMBL1201862, “PubChem BioAssay data set” (2004)
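Test compounds were applied to cells in 96-well plates for 48 hours at 5 doses. GI50 is the concentration that inhibits growth by half.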 Activity calls are given as the source filed them. No stated cut-off is given here; in the data, active = GI50 up to about 1.1 µM and inactive = higher.

Columns and labels:
Test in all cases: NCI anticancer screen, dose series, 48 h
OVCAR-3 = test system: OVCAR-3
KM-20L2 = test system: KM-20L2
LXFL 529 = test system: LXFL 529
T47D = test system: T47D
PC-3 = test system: PC-3
MDA-MB-435 = test system: MDA-MB-435
Hs-578T = test system: Hs-578T
786-0 = test system: 786-0
RXF 631 = test system: RXF 631

Compound | GI50 (OVCAR-3) | GI50 (KM-20L2) | GI50 (LXFL 529) | GI50 (T47D) | GI50 (PC-3) | GI50 (MDA-MB-435) | GI50 (Hs-578T) | GI50 (786-0) | GI50 (RXF 631)
Cc1c2cc[n+](C)cc2c(COC2OC(CO)C(O)C2O)c2c3ccccc3n(C)c12 (centres undefined) | > 100 µM (inactive) | 31.6 µM (inactive) |  |  |  |  |  |  | 
C=CNC(=S)n1nc(-c2ccccc2NC(=O)C(F)(F)F)c(=O)n(C(=S)NC=C)c1=S | 13.3 µM (inactive) |  | 19.5 µM (inactive) |  |  |  |  |  | 
Cc1c(-c2cc3n(n2)C(c2cccs2)C(C#N)=C(c2ccccc2)N3)c(=O)n(-c2ccccc2)n1C (centres undefined) | > 100 µM (inactive) | 24.9 µM (inactive) |  |  |  |  |  |  | 
CNC(=O)OCc1nc(SC)n(C)c1CO | > 100 µM (inactive) | > 100 µM (inactive) |  |  |  |  |  |  | 
O=C1CC2(CCC(O)(c3ccccc3)C(C(=O)c3ccccc3)C2)C(=O)c2ccccc2N1 (centres undefined) | > 100 µM (inactive) |  |  | > 100 µM (inactive) | > 100 µM (inactive) | > 100 µM (inactive) | > 100 µM (inactive) |  | 
CNc1cc2c(c3ccccc13)C(CCl)CN2C(=O)c1cc2cc(OC)c(OC)c(OC)c2[nH]1 (centres undefined) | 0.0226 µM (active) |  |  | 0.00322 µM (active) | 0.00214 µM (active) | 0.00309 µM (active) | 0.00802 µM (active) | 0.000809 µM (active) | 
c1ccc2c(c1)c1ccccc1n2Cn1c2ccccc2c2ccccc21 | > 100 µM (inactive) |  |  | > 100 µM (inactive) | > 100 µM (inactive) | > 100 µM (inactive) |  |  | 
C/C(=N\NC(=O)c1ccncc1)c1cccc(C(F)(F)F)c1 |  |  |  | > 10 µM (inactive) |  |  | 1.75 µM (inactive) |  | 
COc1ccc(C2c3cc4c(cc3OC(Nc3ccccc3)C2C)OCO4)cc1 (centres undefined) | 53.1 µM (inactive) |  |  | 36.1 µM (inactive) | 28.3 µM (inactive) | 67.8 µM (inactive) | > 100 µM (inactive) |  | 
CCOC(=O)/C=C(\C)c1ccc(C)cc1C |  | > 100 µM (inactive) | 14.6 µM (inactive) |  |  |  |  |  | > 100 µM (inactive)
CCc1cc2c(oc3cc4ccccc4cc32)c(=O)[nH]1 | > 10 µM (inactive) |  |  |  | > 10 µM (inactive) |  | > 10 µM (inactive) | > 10 µM (inactive) | 
N=C(N)c1csc([C@@H]2O[C@H](CO)[C@@H](O)[C@H]2O)n1 |  |  | > 100 µM (inactive) |  |  |  |  |  | > 100 µM (inactive)
CCOC(=O)NC(=O)c1cn(C2CCCCC2)c(=O)n(C)c1=O | > 100 µM (inactive) | > 100 µM (inactive) | > 100 µM (inactive) |  |  |  |  | > 100 µM (inactive) | > 100 µM (inactive)
